Reference: article PMC7576493, “Novel ANO1 Inhibitor from Mallotus apelta Extract Exerts Anticancer Activity through Downregulation of ANO1” (International Journal of Molecular Sciences, 2020)

Assays:
Anoctamin1 (ANO1) [1] = biological target: T1, Anoctamin1 (ANO1) (Homo sapiens, UniProt Q5XXA6); test: YFP (F46L/H148Q/I152L) quenching iodide influx assay in FRT cells expressing human ANO1; […] inhibition at […]; type: cell-based
T1 sequence (Q5XXA6 1-986): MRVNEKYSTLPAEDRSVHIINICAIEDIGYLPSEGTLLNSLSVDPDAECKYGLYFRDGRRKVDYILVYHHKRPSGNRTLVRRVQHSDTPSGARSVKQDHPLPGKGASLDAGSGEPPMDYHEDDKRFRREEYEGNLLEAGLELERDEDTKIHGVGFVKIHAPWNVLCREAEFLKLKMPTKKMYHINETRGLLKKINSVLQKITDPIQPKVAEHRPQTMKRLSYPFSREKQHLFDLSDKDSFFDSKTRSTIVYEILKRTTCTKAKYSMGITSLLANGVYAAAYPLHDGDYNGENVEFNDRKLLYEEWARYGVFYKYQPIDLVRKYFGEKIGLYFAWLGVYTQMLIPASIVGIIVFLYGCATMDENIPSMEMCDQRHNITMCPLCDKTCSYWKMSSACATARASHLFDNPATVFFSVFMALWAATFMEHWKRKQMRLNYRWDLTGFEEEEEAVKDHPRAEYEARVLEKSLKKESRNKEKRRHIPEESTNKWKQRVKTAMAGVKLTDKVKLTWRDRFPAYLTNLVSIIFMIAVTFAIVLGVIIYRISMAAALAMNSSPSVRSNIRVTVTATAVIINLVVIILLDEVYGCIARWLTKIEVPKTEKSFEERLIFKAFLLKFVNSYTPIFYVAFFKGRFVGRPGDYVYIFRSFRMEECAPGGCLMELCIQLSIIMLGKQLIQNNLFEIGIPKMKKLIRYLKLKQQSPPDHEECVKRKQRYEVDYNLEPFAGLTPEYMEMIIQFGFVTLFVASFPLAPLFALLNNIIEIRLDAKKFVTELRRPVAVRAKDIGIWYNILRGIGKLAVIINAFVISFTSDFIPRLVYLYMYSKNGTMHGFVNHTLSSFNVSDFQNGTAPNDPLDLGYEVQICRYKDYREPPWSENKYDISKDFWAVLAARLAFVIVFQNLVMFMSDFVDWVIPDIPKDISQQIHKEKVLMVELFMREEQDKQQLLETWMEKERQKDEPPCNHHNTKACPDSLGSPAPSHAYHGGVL

Anoctamin1 (ANO1) [2] = biological target: T1, Anoctamin1 (ANO1); test: apical membrane (short-circuit) current in FRT cells expressing human ANO1; also YFP quenching assay; type: cell-based

Molecule `COc1cc2c(c(OC)c1C(=O)/C=C/c1ccccc1)C=CC(C)(C)O2` [compound 1, Ani-D1] has an inhibition at 25 µM (Anoctamin1 (ANO1) [1]) greater than 99%.
With `COc1cc2c(c(OC)c1C(=O)CC(O)c1ccccc1)C=CC(C)(C)O2` (racemic) [compound 2, Ani-D2] the IC50 (Anoctamin1 (ANO1) [2]) was 2640 nM.
